Results: patent US20110009482A1, “METHODS OF TREATING COPD” (Schering Corporation, priority 2007, published 2011)

Test: Pharmacokinetics after oral administration to a human
Settings: in vivo
[1] = single-dose oral administration of 30 mg to a human

- Tmax (oral administration to a human, read-out: median Tmax): 0.5 to 2 h
- AUC [1]: 484 to 489 ng·h/mL
- Cmax [1]: 122 to 147 ng/mL
Compound: CC[C@@H](Nc1c(Nc2cccc(C(=O)N(C)C)c2O)c(=O)c1=O)c1ccc(C)o1 [formula (1.0A)]
